Results reported in the NIST ThermoML archive (doi:10.1021/je100839v).
Numbers after ± are expanded uncertainties.

Conditions: for Glass transition temperature: DTA; for vapor or sublimation pressure: Liquid, Closed cell (Static) method

CCCCn1cc[n+](C)c1.[I-] [1-butyl-3-methylimidazolium iodide]
Glass transition temperature: -62.0 ± 3 °C

CCCCn1cc[n+](C)c1.F[B-](F)(F)F [1-butyl-3-methylimidazolium tetrafluoroborate]
Glass transition temperature: -85.0 ± 3 °C

CCCCn1cc[n+](C)c1.N#C[S-] [1-butyl-3-methylimidazolium thiocyanate]
Glass transition temperature: -89.0 ± 3 °C

CCOS(=O)(=O)[O-].CCn1cc[n+](C)c1 [1-ethyl-3-methylimidazolium ethyl sulfate]
Glass transition temperature: -86.0 ± 3 °C

O [water]
vapor or sublimation pressure (313.85 K): 8.1 ± 3.1 kPa
vapor or sublimation pressure (318.65 K): 10.4 ± 3.2 kPa
vapor or sublimation pressure (323.45 K): 13.2 ± 3.3 kPa
vapor or sublimation pressure (328.35 K): 16.5 ± 3.3 kPa
vapor or sublimation pressure (333.35 K): 20.1 ± 3.5 kPa
vapor or sublimation pressure (338.15 K): 24.9 ± 3.7 kPa
vapor or sublimation pressure (343.05 K): 30.6 ± 3.8 kPa
